Data taken from ChEMBL document CHEMBL1128770, “Amino azoles and azolo-azines as potential hepatoprotectants: Part III” (1995).

What was measured:
Assay type in all cases: functional
Rattus norvegicus [1] = test: Hepatoprotective activity against thioacetamide(200 mg/kg, sc) induced toxicity in rat at 6 mg/kg dose(po x 7 days), expressed as %protection afforded in various levels of glutamate oxaloacetate transaminase (GOT)
Rattus norvegicus [2] = test: Hepatoprotective activity against thioacetamide (200 mg/kg, sc) induced toxicity in rat at 6 mg/kg dose (po x 7 days), expressed as %protection afforded in various levels of alkaline phosphatase (ALP)
Rattus norvegicus [3] = test: Hepatoprotective activity against thioacetamide (200 mg/kg, sc) induced toxicity in rat at 6 mg/kg dose (po x 7 days), expressed as %protection afforded in various levels of bilirubin
Rattus norvegicus [4] = test: Hepatoprotective activity against thioacetamide(200 mg/kg, sc) induced toxicity in rat at 6 mg/kg dose(po x 7 days), expressed as %protection afforded in various levels of glutamate pyruvate transaminase (GPT)

Row | Compound | GOT Level (Rattus norvegicus [1]) [U l-1] | ALP Level (Rattus norvegicus [2]) [U l-1] | Bilurubin Level (Rattus norvegicus [3]) [mg %] | GPT Level (Rattus norvegicus [4]) [U l-1]
1 | CC(=N)S [THIOACETAMIDE] | 128 | 218.9 | 0.829 | 171.5
2 | COc1ccc(Cc2c(N)noc2N)cc1 | 99.9 | 215.9 | 0.745 | 87.4
3 | Nc1noc(N)c1Cc1ccc(Cl)cc1 | 106 | 201 | 0.735 | 112.5
4 | Cc1ccc(-c2cc(Cc3nnc(N)s3)n(-c3ccccc3)n2)cc1 | 65.2 | 196 | 0.575 | 87.5
5 | CN(C)c1ccc(Cc2c(N)n[nH]c2N)cc1 | 67.1 | 187.1 | 0.568 | 93.8
6 | Nc1n[nH]c(N)c1Cc1ccc2c(c1)OCO2 | 75.6 | 196.9 | 0.758 | 99.2
7 | CN(C)c1ccc(Cc2c(N)noc2N)cc1 | 114 | 206.6 | 0.786 | 146.2
8 | Nc1nc(N)nc(Cc2cc(-c3ccc(Cl)cc3)[nH]n2)n1 | 119 | 190.5 | 0.748 | 148.5
9 | SILYMARIN | 84.5 | 199 | 0.617 | 110
10 | Nc1n[nH]c(N)c1Cc1ccc(Cl)cc1 | 97.5 | 205.3 | 0.757 | 136.2
11 | COc1ccc(Cc2c(N)n[nH]c2N)cc1 | 70.4 | 187 | 0.619 | 85.5
12 | Nc1nc(N)nc(Cc2cc(-c3ccc(F)cc3)[nH]n2)n1 | 121.6 | 203.2 | 0.807 | 129
13 | CC(=O)Nc1[nH]nc(N)c1Cc1ccc(Cl)cc1 | 96.7 | 204 | 0.693 | 146
14 | Nc1noc(N)c1Cc1ccc2c(c1)OCO2 | 101.5 | 205.8 | 0.69 | 109.3
